Literature values, collected in patent publication US20100136109A1, “SUSTAINED RELEASE” (priority 2007, published 2010).

Conditions: in vivo

half-life	SMILES
approx 12 hours	N[C@@H](Cc1cc(I)c(Oc2ccc(O)c(I)c2)c(I)c1)C(=O)O [Formulation T3, triiodothyronine]
170 h	N[C@@H](Cc1cc(I)c(Oc2cc(I)c(O)c(I)c2)c(I)c1)C(=O)O [Formulation T4, thyroxine]
